In patent US20230348473A1, “SUBSTITUTED PYRIDINES AS PARP1 INHIBITORS” (Xinthera, Inc., priority 2022, published 2023):

How the values were obtained:
DLD-1 parental cells = assay: Cell growth inhibition assay (CellTiter-Glo), DLD-1 parental; type: cell-based; conditions: Homo sapiens, DLD-1, 168 h; 7 days, CellTiter Glo 2.0
Source text: The objective of this study is to evaluate the effect of compound disclosed herein on cell proliferation through the cell viability assay in DLD-1 BRCA2(−/−) and parental isogenic pair and MDA-MB-436 (mutated BRCA1) cell lines. The CellTiter-Glo (CTG) based cell viability assay is designed to determine the number of viable cells in the culture because of compound effect, by quantifying ATP, which indicates the presence of metabolically active cells.
DLD-1 BRCA2(−/−) and parental isogenic pair were cultured in RPMI 1640 supplemented with 10% fetal bovine serum (FBS), and MDA-MB-436 cells were cultured in DMEM supplemented with 10% FBS. Both are culture at 37° C. with 5% CO2. Invention compounds were distributed to the 384 well plate (Corning, 3764) using Echo acoustic liquid handler to form a 1:3 serially diluted final concentration with top dose of 10 or 30 μM. The cells were seeded into the plate in the density of 50 cells/well (DLD-1 parental), 200 cells/well (DLD-1 BRCA2−/−), or 500 cells/well (MDA-MB-436). After a short spun, the cells were cultured in a well moisturized incubator at 37° C. with 5% CO2 for 7 days without disturbance. The cell viability was measured by CellTiter Glo 2.0 assay kit (Promega, G9243), and growth inhibition rate was calculated and plotted against final compound concentration, and the data were fitted in Xfit to generate IC50.

[1] = Caco-2 bidirectional permeability; type: in vitro ADME; conditions: human, 5 μM, 2 hours
Method: Following a 1-hr. equilibration period in cell culture medium maintained at 37° C. in an incubator containing a 5% CO2 atmosphere at 95% relative humidity, Corning 96-well HTS Transwell® permeable support plates were seeded with 34,300 Caco-2 cells (ATCC) per well. Following seeding, plates were cultured for 14-18 days with cell culture medium replacement every other day beginning no later than 24 hr. after plating. Monolayer barrier integrity was monitored during the culture period using transepithelial electrical resistance (TEER) measurements taken with a Millicell Epithelial Volt-Ohm system. Caco-2 monolayers were considered ready for use when the TEER value >230 ohm·cm^2. Working stocks of individual test articles were prepared at a concentration of 5 μM by diluting 1 mM stocks prepared in DMSO into 10 mM HEPES. Prior to conducting the assay, Caco-2 plates were washed twice with prewarmed 10 mM HEPES and then equilibrated in 10 mM HEPES for 30 min. at 37° C. Following equilibration, test article flux was tested bidirectionally (in both the apical-to-basolateral and basolateral-to-apical directions) by adding test article working stocks to either the apical or basolateral chambers. Blank 10 mM HEPES was added to the opposite sides. Plates were then incubated at 37° C. for 2 hours. At the end of the incubation, aliquots from both sides of each monolayer were quenched with 4 volumes of ACN containing internal standards. Following a centrifugation step, supernatants were diluted with pure water prior to analysis via LC-MS/MS.
Apparent permeability (Papp, ×10^−6 cm/s) was calculated for all transport assays using the following equation: […]
Where: Papp is apparent permeability (×10^−6 cm/s). • dQ/dt is the rate of drug transport (pmol/s). • A is the surface area of the membrane (cm^2). • D0 is the initial donor concentration (nM; pmol/cm^3).
Efflux ratio was determined by calculating the ratio of the Papp in the basolateral-to-apical direction to the Papp in the apical-to-basolateral direction using the following equation: […]
Where: Papp (B-to-A) is the apparent permeability in the basolateral-to-apical direction. • Papp (A-to-B) is the apparent permeability in the apical-to-basolateral direction.

[2] = In vivo determination of rat Kp,uu; conditions: male Sprague-Dawley rats, oral gavage, Kp*(fraction unbound in brain homogenate/fraction unbound in plasma)
Method: The equilibrium dialysis method was used to investigate the in vitro binding of test articles and reference compounds to plasma proteins. Plasma samples containing 5 μM test article or blank dialysis buffer solution (PBS, pH 7.4) were added to separate chambers of the dialysis wells of the High Throughput equilibrium Dialysis (HTD) device. The dialysis plate was sealed and placed in an incubator at 37° C. with 5% CO2 with shaking at approximately 100 rpm for 6 hours. All experiments were performed in duplicable. Ketoconazole (5 μM) was used as the reference compound. After incubation, the seal was removed, and 50 μL of post-dialysis samples were pipetted from both buffer and plasma chambers into fresh 96-well plates. Samples were equimatrilyzed by either addition of blank plasma to buffer samples or the addition of blank buffer to plasma samples. Subsequently, 400 μL (4 volumes) of acetonitrile containing internal were added to all samples to precipitate proteins prior to analysis by UPLC-MS/MS to determine the relative concentrations of test articles. The unbound fractions in plasma were calculated using the concentrations of test articles in buffer and plasma samples according to the following equation: […]
The equilibrium dialysis method was used to investigate the in vitro binding of test articles and reference compounds to rodent brain homogenate. Brains collected from naïve animals were weighed and homogenized in 4 volumes of PBS, pH 7.4. […] The unbound fractions in diluted brain homogenate were calculated using the concentrations of test articles in buffer and homogenate samples according to the following equation: […]
Prior to bioanalysis, plasma and brain samples were extracted with 4 volumes of acetonitrile containing internal standard and centrifuged for 15 minutes. […] Plasma and brain homogenate drug concentrations were determined against calibration curves generated by spiking blank rat plasma or brain homogenate with drug across an appropriate concentration range. […]

[3] = hHEP metabolic stability, predicted human hepatic clearance; type: in vitro ADME; conditions: well-stirred model, 1 μM
Method: Working stocks of individual test articles were prepared at concentrations of 100 μM by diluting 10 mM stocks prepared in DMSO 100-fold (v:v) into ACN/H2O (50/50, v:v). Human cryopreserved hepatocytes were thawed in a 37° C. water bath in <2 min., suspended in thawing media, and then centrifuged at 100×g for 10 min. Thawing media was aspirated, and pelleted hepatocytes were resuspended into incubation media at 1.5×10^6 cells/mL. Cell viability was determined using an Acridine Orange/Propidium Iodine stain, and hepatocytes were further diluted with incubation media to 0.5×10^6 viable cells/mL. Hepatocyte aliquots of 198 μL were added to wells of a 96-well plate, and test article incubations were initiated by the addition of 2 μL of 100 μM working stocks. Plates were incubated at 37° C. in a 5% CO2 atmosphere at 95% relative humidity on an orbital shaker at 300 rpm. Incubations were performed in duplicate. Following incubation, aliquots of individual reactions were terminated by addition of ACN containing internal standards at 0, 30-, 60-, 90-, 120-, and 240-min. Precipitated protein was pelleted via refrigerated centrifugation. Supernatants were diluted into an equal volume of pure water and mixed well prior to analysis via LC-MS/MS. In vitro intrinsic clearances (CLint) in μL/min/10^6 cells were determined for each incubation from calculated in vitro half-lives determined using a standard log-linear regression approach. In vitro CLint values were scaled up using the following physiological scaling factors: 99×10^6 cells/g human liver and 25.7 g human liver/kg body weight.

[4] = HLM metabolic stability, predicted human hepatic clearance; type: in vitro ADME; conditions: well-stirred model, 1 μM
Method: Working stocks of individual test articles were prepared at a concentration of 100 μM by diluting 10 mM stocks prepared in DMSO 100-fold (v:v) into ACN. Thawed hepatic microsomes were suspended in 100 mM potassium phosphate buffer, pH 7.4 to a microsomal protein concentration of 0.562 mg/mL. Diluted microsomes were combined with a solution of 10 mM NADPH, and the mixture was pre-warmed to 37° C. for 8 min. Reactions were initiated by addition of the test article working stocks to achieve a final test article concentration of 1 μM. Final microsomal protein and NADPH concentrations were 0.5 mg/mL and 1 mM, respectively. Incubations containing NADPH were run in duplicate. Test article losses mediated by non-CYP mechanisms were evaluated in a parallel set of incubations run in the absence of NADPH. Incubations lacking NADPH consisted of 1 replicate per test article. Following incubation in a 37° C. water bath, aliquots of individual reactions were quenched with cold ACN containing internal standards at […], 15-, 30-, 60-, 90-, and 120-min. Precipitated protein was pelleted via refrigerated centrifugation. Supernatants were diluted into an equal volume of pure water and mixed well prior to analysis via LC-MS/MS. In vitro intrinsic clearances (CLint) in μL/min/mg were determined for each incubation from calculated in vitro half-lives determined using a standard log-linear regression approach. In vitro CLint values were scaled up using the following physiological scaling factors: 40 mg microsomal protein/g human liver and 25.7 g human liver/kg body weight.

PARP1 = PARP1 (Homo sapiens (Human), UniProt P09874); assay: Biochemical fluorescence polarization (FP) assay, PARPi-FL displacement, PARP1; type: binding; conditions: 20 nM protein, 3 nM PARPi-FL, 4 h
PARP1, sequence (P09874 whole entry): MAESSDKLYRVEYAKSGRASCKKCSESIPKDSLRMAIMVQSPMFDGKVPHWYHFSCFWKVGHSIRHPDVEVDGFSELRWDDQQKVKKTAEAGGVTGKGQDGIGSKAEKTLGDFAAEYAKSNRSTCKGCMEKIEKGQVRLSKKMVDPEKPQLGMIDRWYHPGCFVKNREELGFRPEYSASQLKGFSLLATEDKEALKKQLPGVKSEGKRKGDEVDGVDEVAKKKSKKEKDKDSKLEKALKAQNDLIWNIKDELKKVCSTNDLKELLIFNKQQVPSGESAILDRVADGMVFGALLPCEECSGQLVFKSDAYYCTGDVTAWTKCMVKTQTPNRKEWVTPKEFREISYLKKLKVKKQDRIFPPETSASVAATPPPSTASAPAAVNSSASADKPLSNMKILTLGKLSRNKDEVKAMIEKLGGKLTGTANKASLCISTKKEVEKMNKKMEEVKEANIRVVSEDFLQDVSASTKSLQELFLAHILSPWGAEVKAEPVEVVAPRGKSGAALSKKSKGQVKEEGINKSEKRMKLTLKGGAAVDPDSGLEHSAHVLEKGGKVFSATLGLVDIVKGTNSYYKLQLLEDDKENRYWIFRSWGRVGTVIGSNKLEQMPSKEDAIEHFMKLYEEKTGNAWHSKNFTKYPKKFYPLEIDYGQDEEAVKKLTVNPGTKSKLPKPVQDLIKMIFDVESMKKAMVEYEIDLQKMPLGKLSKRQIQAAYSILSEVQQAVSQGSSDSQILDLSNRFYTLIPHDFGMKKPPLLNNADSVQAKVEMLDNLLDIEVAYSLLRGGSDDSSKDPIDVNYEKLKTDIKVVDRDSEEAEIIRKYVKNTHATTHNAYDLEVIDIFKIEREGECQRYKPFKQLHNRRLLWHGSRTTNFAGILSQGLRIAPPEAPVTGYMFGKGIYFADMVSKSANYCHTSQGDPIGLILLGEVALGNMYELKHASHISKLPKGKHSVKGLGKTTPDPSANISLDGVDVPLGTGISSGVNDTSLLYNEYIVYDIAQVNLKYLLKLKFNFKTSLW
Method: (§1) To characterize our compounds, we utilized an assay measuring the displacement of a commercially available fluorescently labeled PARP 1/2 inhibitor (PARPi-FL, Tocris Biosciences, #6461) as exemplified in assays performed in WO2014/064149 and WO2021/013735A1. The assay was performed utilizing the following method: Compounds were dissolved in DMSO an Echo550 liquid handler was utilized to make serial dilations in the desired concentration range in Optiplate-384F plates. 100% DMSO was used for the high (with protein) and low (without protein) control samples. 20 nL of compound or DMSO alone was added to individual assay plate wells. […] The PARPi-FL was then added at a final concentration of 3 nM. The assay plate is centrifuged at 1000 rpm for 1 min and incubated for 4 h at room temperature. […] XLFit (equation 201) is used to calculate a reported IC50 for each compound.

PARP2 = PARP2 (Homo sapiens (Human), UniProt Q9UGN5); assay: Biochemical fluorescence polarization (FP) assay, PARPi-FL displacement, PARP2; type: binding; conditions: 20 nM protein, 3 nM PARPi-FL, 4 h
PARP2, sequence (Q9UGN5 whole entry): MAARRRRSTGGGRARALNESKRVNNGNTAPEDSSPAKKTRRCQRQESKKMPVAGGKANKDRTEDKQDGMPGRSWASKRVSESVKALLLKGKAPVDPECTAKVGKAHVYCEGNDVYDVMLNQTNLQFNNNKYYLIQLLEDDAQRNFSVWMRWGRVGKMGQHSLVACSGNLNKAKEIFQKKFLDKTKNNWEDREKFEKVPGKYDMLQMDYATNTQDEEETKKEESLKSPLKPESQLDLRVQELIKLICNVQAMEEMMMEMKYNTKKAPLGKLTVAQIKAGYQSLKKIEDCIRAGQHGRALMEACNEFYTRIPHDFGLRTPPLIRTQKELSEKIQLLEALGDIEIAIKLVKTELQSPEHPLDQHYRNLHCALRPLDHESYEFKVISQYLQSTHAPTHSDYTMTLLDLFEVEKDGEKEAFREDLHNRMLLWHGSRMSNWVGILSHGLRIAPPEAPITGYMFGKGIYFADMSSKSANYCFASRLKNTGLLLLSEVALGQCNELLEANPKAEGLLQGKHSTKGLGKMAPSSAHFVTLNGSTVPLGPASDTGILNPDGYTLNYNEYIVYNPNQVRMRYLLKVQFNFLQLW
Method: as §1

[2H]C([2H])([2H])NC(=O)c1ccc(N2CCN(Cc3ccc4c5c(c(=O)[nH]c4c3F)CCO5)CC2)c(F)n1 [Example 22]
EC50 (DLD-1 parental cells): > 30 µM

CNC(=O)c1ccc(N2CCN(Cc3ccc4c5c(c(=O)[nH]c4c3F)CCO5)CC2)c(F)n1 [Example 9, 6-fluoro-5-[4-({6-fluoro-4-oxo-2H,3H,5H-furo[3,2-c]quinolin-7-yl}methyl)piperazin-1-yl]-N-methylpyridine-2-carboxamide]
Papp A→B at 2 h, 5 μM ([1]; apical-to-basolateral, read-out: Caco-2 AB): 20.5 ×10⁻⁶ cm/s
Papp B→A at 2 h, 5 μM ([1]; basolateral-to-apical, read-out: Caco-2 BA): 28.1 ×10⁻⁶ cm/s
Rat Kpuu [2]: 0.65
HHEP Clh [3]: <3.3 mL/min/kg
HLM Clh [4]: <4 mL/min/kg

[2H]C([2H])(c1ccc2c3c(c(=O)[nH]c2c1F)CCO3)N1CCN(c2ccc(C(=O)NC)nc2F)CC1 [Example 24]
Rat Kpuu [2]: 0.81

CNC(=O)c1ccc(N2CCN(Cc3ccc4c([nH]c(=O)c5ccnn54)c3F)CC2)c(F)n1 [Example 1, 6-fluoro-5-[4-({6-fluoro-4-oxo-5H-pyrazolo[1,5-a]quinoxalin-7-yl}methyl)piperazin-1-yl]-N-methylpyridine-2-carboxamide]
Rat Kpuu [2]: 1.0
IC50 (PARP1): 0.0081 µM
IC50 (PARP2): > 100 µM
